The record followed here is patent US20240336594A1, “SIX-MEMBERED ARYL OR HETEROARYL AMIDES, AND COMPOSITION AND USE THEREOF” (BETTA PHARMACEUTICALS CO., LTD, priority 2021, published 2024).

Molecules are shown by their SMILES. Some results are limits rather than exact numbers.

One assay has as its target T1, MALT1 (Homo sapiens, UniProt Q9UDY8).
T1 sequence (Q9UDY8 1-824): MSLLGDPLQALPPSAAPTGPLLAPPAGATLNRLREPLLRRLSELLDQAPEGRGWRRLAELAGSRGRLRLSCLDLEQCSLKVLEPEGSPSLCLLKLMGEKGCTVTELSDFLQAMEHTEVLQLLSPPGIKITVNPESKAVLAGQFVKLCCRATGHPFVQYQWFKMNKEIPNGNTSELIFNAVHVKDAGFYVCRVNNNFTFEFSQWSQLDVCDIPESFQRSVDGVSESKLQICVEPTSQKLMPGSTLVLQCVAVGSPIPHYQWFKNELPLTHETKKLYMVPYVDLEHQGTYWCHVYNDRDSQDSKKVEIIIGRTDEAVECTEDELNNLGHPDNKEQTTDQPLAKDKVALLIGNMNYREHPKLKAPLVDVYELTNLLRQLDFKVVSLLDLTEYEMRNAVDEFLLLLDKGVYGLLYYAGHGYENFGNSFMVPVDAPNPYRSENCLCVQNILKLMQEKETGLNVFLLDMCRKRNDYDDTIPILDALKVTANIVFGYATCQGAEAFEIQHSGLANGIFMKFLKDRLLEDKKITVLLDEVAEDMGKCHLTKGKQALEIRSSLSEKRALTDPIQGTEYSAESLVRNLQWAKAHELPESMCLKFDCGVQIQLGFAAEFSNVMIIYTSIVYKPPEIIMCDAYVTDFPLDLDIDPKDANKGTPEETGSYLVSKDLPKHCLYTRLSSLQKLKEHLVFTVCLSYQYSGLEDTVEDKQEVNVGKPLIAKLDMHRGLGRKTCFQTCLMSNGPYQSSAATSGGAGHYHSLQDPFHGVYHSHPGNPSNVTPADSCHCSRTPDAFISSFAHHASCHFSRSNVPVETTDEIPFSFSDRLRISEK
Description: MALT1 protease inhibition assay (AMC-labeled peptide, fluorescence 360/460). The class given is biochemical. To be noted: substrate Ac-LRSR-AMC, 15 min preincubation, 90 min at 25° C. The method in brief: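 Recombinant MALT1 preincubated with test compounds (10-point 1:3 dilutions in DMSO, duplicates) for 15 min at 25 °C in citrate-containing protease buffer with DTT, then AMC-labeled peptide added for 90 min at 25 °C. Inhibition normalized to no-compound (max) and no-enzyme (min) wells; IC50 from curve fit.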

In assay [1] the test system is IL-2 secretion of Jurkat cells (PMA/Ionomycin inducing). Description: ELISA method to detect IL-2 secretion induced by PMA/Ionomycin. The class given is cell-based. The note with it: Homo sapiens, 20 h. Here is the method:
12.5*10^3 Jurkat cells were seeded on a 96-well plate and incubated with various concentrations of compound solution for 30 min. Then, 500×PMA/Ionomycin stimulating factor was diluted with culture medium and added to the cell plate. […] The final concentrations of the compounds were 10000, 3333.3, 1111.1, 370.4, 123.5, 41.2, 13.7, 4.6, 1.5, 0 nM (The final concentration of DMSO is 0.5%). After incubation for 20 h, the supernatant was collected via centrifugation. The final IL-2 concentration was detected by ELISA method (IL-2 Duoset, R&D Systems, DY202). The signal value of each sample at a wavelength of 450 nm was collected by EnVision multifunctional microplate reader and converted to the IL-2 concentration via the ELISACalc.exe software. The IL-2 secretion inhibitory activity IC50 was fitted by GraphPad Prism software. The cell viability was tested simultaneously using the Cell-Titer Glo kit.
The compounds of the present invention show strong inhibitory effect on IL-2 secretion of Jurkat cells (PMA/Ionomycin inducing).
A general note: In an ELISA, binding on a coated surface is turned into a signal by an enzyme label.

By IC50 is commonly meant the concentration that gives 50% inhibition. Higher therefore signals weaker potency.

Regarding `Cc1cc(-c2ccc(F)cc2N)c(F)cc1C(=O)Nc1cnc(-n2nccn2)c(Cl)c1` [Example A113], the figures for the IC50 (at MALT1; in assay [1]) were no more than 10 nM and 35 nM, respectively.

With `Cc1cc(-c2ccc(F)cc2Br)c(F)cc1C(=O)Nc1cnc(-n2nccn2)c(Cl)c1` [Example A114], the half-maximal inhibitory concentration (IC50) is no more than 10 nM on MALT1 and 34 nM in assay [1].

On to `Cc1cc(-c2ccc(F)cc2Cl)c(F)cc1C(=O)Nc1cnc(-n2nccn2)c(Cl)c1` [Example A115, 2′-chloro-N-(5-chloro-6-(2H-1,2,3-triazol-2-yl)pyridin-3-yl)-2,4′-difluoro-5-methyl-[1,1′-biphenyl]-4-carboxamide], for which the IC50 at MALT1 is no more than 10 nM; in assay [1], 40 nM.

Turning to `Cc1cc(-c2ccc(F)cc2F)c(F)cc1C(=O)Nc1cnc(-n2nccn2)c(Cl)c1` [Example A116, N-(5-chloro-6-(2H-1,2,3-triazol-2-yl)pyridin-3-yl)-2,2′,4′-trifluoro-5-methyl-[1,1′-biphenyl]-4-carboxamide], the IC50 against MALT1 was no more than 10 nM; in assay [1] it was 54 nM.

Consider `Nc1ccccc1-c1cc(F)c(C(=O)Nc2cnc(-n3nccn3)c(Cl)c2)cc1Cl` [Example A119, 2′-amino-2-chloro-N-(5-chloro-6-(2H-1,2,3-triazol-2-yl)pyridin-3-yl)-5-fluoro-[1,1′-biphenyl]-4-carboxamide], for which the IC50 against MALT1 was no more than 10 nM; in assay [1] it was 466 nM.

With `Nc1cc(F)ccc1-c1cc(F)c(C(=O)Nc2cnc(-n3nccn3)c(Cl)c2)cc1Cl` [Example A120, 2′-amino-2-chloro-N-(5-chloro-6-(2H-1,2,3-triazol-2-yl)pyridin-3-yl)-4′,5-difluoro-[1,1′-biphenyl]-4-carboxamide], the IC50 on MALT1 was no more than 10 nM; in assay [1], 57 nM.

`Nc1cc(F)ccc1-c1cc(Cl)c(C(=O)Nc2cnc(-n3nccn3)c(Cl)c2)cc1F` [Example A121, 2′-amino-5-chloro-N-(5-chloro-6-(2H-1,2,3-triazol-2-yl)pyridin-3-yl)-2,4′-difluoro-[1,1′-biphenyl]-4-carboxamide]: the IC50 against MALT1 is no more than 10 nM; in assay [1] it was 43 nM.

For the compound `Nc1cc(F)ccc1-c1cc(Cl)c(C(=O)Nc2cnc(-n3nccn3)c(C(F)(F)F)c2)cc1F` [Example A122, N-(6-(2H-1,2,3-triazol-2-yl)-5-(trifluoromethyl)pyridin-3-yl)-2′-amino-5-chloro-2,4′-difluoro-[1,1′-biphenyl]-4-carboxamide], the IC50 was no more than 10 nM against MALT1 and 121 nM in assay [1].

Regarding `Nc1cc(F)ccc1-c1cc(F)c(C(=O)Nc2cnc(-n3nccn3)c(C(F)(F)F)c2)cc1Cl` [Example A123, N-(6-(2H-1,2,3-triazol-2-yl)-5-(trifluoromethyl)pyridin-3-yl)-2′-amino-2-chloro-4′,5-difluoro-[1,1′-biphenyl]-4-carboxamide], the IC50 was no more than 10 nM on MALT1 and 58 nM in assay [1].

In the case of `Nc1cnccc1-c1cc(F)c(C(=O)Nc2cnc(-n3nccn3)c(Cl)c2)cc1Cl` [Example A124], the IC50 at MALT1 is no more than 10 nM; in assay [1], 252 nM.

Take `Cc1cc(-c2ccncc2Cl)c(F)cc1C(=O)Nc1cnc(-n2nccn2)c(Cl)c1` [Example A126]: the half-inhibitory concentration (IC50) on MALT1 is no more than 10 nM; in assay [1], 136 nM.

With `CNc1cc(F)ccc1-c1cc(F)c(C(=O)Nc2cnc(-n3nccn3)c(Cl)c2)cc1Cl` [Example A127, 2-chloro-N-(5-chloro-6-(2H-1,2,3-triazol-2-yl)pyridin-3-yl)-4′,5-difluoro-2′-(methylamino)-[1,1′-biphenyl]-4-carboxamide], the IC50 against MALT1 was no more than 10 nM; in assay [1] it was 444 nM.

In the case of `O=C(Nc1cnc(-n2nccn2)c(Cl)c1)c1cc(F)c(-c2ccc(F)cc2CO)cc1Cl` [Example A281], the figures for the IC50 (against MALT1; in assay [1]) were no more than 10 nM and 77 nM, respectively.

With `C#Cc1cncc(N)c1-c1cc(Cl)c(C(=O)Nc2cnc(-n3nccn3)c(C(F)(F)F)c2)cc1F` [Example A410, N-(6-(2H-1,2,3-triazol-2-yl)-5-(trifluoromethyl)pyridin-3-yl)-4-(3-amino-5-ethynylpyridin-4-yl)-2-chloro-5-fluorobenzamide], the IC50 was no more than 10 nM against MALT1 and 66 nM in assay [1].

As to `C#Cc1cncc(N)c1-c1cc(Cl)c(C(=O)Nc2cnc(-n3nccn3)c(Cl)c2)cc1F` [Example A411, 4-(3-amino-5-ethynylpyridin-4-yl)-2-chloro-N-(5-chloro-5-(2H-1,2,3-triazol-2-yl)pyridin-3-yl)-5-fluorobenzamide], the results for the IC50 (against MALT1; in assay [1]) were no more than 10 nM and 17 nM, respectively.

`C#Cc1cc(F)cc(N)c1-c1cc(Cl)c(C(=O)Nc2cnc(-n3nccn3)c(Cl)c2)cc1F` [Example A412]: the IC50 against MALT1 was no more than 10 nM; in assay [1], 32 nM.

`C#Cc1cnccc1-c1cc(Cl)c(C(=O)Nc2cnc(C(=O)NC)c(Cl)c2)cc1F` [Example A426, 3-chloro-5-(2-chloro-4-(3-ethynylpyridin-4-yl)-5-fluorobenzamido)-N-methylpicolinamide]: the IC50 was no more than 10 nM on MALT1 and 77 nM in assay [1].

As to `C#Cc1cnccc1-c1cc(Cl)c(C(=O)Nc2cnc(C(=O)NCC#N)c(Cl)c2)cc1F` [Example A427, 3-chloro-5-(2-chloro-4-(3-ethynylpyridin-4-yl)-5-fluorobenzamido)-N-(cyanomethyl)picolinamide], the IC50 against MALT1 was no more than 10 nM; in assay [1], 77 nM.

In the case of `C#Cc1cnccc1-c1cc(Cl)c(C(=O)Nc2cnc(C(=O)NCC)c(Cl)c2)cc1F` [Example A428, 3-chloro-5-(2-chloro-4-(3-ethynylpyridin-4-yl)-5-fluorobenzamido)-N-ethylpicolinamide], the IC50 on MALT1 was no more than 10 nM; in assay [1], 164 nM.

As to `C#Cc1cncc(N)c1-c1cc(Cl)c(C(=O)Nc2cnc(C(=O)NCC(F)(F)F)c(Cl)c2)cc1F` [Example A470, 5-(4-(3-amino-5-ethynylpyridin-4-yl)-2-chloro-5-fluorobenzamido)-3-chloro-N-(2,2,2-trifluoroethyl)picolinamide], the results for the IC50 (against MALT1; in assay [1]) were no more than 10 nM and 113 nM, respectively.

Take `Nc1cncc(C2CC2)c1-c1cc(Cl)c(C(=O)Nc2cnc(-n3nccn3)c(Cl)c2)cc1F` [Example A506, 4-(3-amino-5-cyclopropylpyridin-4-yl)-2-chloro-N-(5-chloro-6-(2H-1,2,3-triazol-2-yl)pyridin-3-yl)-5-fluorobenzamide]: the values for the IC50 (on MALT1; in assay [1]) were no more than 10 nM and 76 nM, respectively.
